Activity calls are given as the source filed them. No cut-off for these calls is given here.
Legend:
Mus musculus = experiment: Toxicity in ip dosed mouse; type: organism-based; details: in vivo
Musca domestica = experiment: Insecticidal activity against Musca domestica in presence of piperonyl butoxide applied topically; type: functional, organism-based
[1] = target: Ryanodine receptor 1 (Oryctolagus cuniculus) (UniProt P11716); experiment: Displacement of [3H]ryanodine from Ca2+- ryanodine 1 receptor complex in rabbit skeletal muscle
Sequence of Ryanodine receptor 1 (Oryctolagus cuniculus) (P11716 whole entry): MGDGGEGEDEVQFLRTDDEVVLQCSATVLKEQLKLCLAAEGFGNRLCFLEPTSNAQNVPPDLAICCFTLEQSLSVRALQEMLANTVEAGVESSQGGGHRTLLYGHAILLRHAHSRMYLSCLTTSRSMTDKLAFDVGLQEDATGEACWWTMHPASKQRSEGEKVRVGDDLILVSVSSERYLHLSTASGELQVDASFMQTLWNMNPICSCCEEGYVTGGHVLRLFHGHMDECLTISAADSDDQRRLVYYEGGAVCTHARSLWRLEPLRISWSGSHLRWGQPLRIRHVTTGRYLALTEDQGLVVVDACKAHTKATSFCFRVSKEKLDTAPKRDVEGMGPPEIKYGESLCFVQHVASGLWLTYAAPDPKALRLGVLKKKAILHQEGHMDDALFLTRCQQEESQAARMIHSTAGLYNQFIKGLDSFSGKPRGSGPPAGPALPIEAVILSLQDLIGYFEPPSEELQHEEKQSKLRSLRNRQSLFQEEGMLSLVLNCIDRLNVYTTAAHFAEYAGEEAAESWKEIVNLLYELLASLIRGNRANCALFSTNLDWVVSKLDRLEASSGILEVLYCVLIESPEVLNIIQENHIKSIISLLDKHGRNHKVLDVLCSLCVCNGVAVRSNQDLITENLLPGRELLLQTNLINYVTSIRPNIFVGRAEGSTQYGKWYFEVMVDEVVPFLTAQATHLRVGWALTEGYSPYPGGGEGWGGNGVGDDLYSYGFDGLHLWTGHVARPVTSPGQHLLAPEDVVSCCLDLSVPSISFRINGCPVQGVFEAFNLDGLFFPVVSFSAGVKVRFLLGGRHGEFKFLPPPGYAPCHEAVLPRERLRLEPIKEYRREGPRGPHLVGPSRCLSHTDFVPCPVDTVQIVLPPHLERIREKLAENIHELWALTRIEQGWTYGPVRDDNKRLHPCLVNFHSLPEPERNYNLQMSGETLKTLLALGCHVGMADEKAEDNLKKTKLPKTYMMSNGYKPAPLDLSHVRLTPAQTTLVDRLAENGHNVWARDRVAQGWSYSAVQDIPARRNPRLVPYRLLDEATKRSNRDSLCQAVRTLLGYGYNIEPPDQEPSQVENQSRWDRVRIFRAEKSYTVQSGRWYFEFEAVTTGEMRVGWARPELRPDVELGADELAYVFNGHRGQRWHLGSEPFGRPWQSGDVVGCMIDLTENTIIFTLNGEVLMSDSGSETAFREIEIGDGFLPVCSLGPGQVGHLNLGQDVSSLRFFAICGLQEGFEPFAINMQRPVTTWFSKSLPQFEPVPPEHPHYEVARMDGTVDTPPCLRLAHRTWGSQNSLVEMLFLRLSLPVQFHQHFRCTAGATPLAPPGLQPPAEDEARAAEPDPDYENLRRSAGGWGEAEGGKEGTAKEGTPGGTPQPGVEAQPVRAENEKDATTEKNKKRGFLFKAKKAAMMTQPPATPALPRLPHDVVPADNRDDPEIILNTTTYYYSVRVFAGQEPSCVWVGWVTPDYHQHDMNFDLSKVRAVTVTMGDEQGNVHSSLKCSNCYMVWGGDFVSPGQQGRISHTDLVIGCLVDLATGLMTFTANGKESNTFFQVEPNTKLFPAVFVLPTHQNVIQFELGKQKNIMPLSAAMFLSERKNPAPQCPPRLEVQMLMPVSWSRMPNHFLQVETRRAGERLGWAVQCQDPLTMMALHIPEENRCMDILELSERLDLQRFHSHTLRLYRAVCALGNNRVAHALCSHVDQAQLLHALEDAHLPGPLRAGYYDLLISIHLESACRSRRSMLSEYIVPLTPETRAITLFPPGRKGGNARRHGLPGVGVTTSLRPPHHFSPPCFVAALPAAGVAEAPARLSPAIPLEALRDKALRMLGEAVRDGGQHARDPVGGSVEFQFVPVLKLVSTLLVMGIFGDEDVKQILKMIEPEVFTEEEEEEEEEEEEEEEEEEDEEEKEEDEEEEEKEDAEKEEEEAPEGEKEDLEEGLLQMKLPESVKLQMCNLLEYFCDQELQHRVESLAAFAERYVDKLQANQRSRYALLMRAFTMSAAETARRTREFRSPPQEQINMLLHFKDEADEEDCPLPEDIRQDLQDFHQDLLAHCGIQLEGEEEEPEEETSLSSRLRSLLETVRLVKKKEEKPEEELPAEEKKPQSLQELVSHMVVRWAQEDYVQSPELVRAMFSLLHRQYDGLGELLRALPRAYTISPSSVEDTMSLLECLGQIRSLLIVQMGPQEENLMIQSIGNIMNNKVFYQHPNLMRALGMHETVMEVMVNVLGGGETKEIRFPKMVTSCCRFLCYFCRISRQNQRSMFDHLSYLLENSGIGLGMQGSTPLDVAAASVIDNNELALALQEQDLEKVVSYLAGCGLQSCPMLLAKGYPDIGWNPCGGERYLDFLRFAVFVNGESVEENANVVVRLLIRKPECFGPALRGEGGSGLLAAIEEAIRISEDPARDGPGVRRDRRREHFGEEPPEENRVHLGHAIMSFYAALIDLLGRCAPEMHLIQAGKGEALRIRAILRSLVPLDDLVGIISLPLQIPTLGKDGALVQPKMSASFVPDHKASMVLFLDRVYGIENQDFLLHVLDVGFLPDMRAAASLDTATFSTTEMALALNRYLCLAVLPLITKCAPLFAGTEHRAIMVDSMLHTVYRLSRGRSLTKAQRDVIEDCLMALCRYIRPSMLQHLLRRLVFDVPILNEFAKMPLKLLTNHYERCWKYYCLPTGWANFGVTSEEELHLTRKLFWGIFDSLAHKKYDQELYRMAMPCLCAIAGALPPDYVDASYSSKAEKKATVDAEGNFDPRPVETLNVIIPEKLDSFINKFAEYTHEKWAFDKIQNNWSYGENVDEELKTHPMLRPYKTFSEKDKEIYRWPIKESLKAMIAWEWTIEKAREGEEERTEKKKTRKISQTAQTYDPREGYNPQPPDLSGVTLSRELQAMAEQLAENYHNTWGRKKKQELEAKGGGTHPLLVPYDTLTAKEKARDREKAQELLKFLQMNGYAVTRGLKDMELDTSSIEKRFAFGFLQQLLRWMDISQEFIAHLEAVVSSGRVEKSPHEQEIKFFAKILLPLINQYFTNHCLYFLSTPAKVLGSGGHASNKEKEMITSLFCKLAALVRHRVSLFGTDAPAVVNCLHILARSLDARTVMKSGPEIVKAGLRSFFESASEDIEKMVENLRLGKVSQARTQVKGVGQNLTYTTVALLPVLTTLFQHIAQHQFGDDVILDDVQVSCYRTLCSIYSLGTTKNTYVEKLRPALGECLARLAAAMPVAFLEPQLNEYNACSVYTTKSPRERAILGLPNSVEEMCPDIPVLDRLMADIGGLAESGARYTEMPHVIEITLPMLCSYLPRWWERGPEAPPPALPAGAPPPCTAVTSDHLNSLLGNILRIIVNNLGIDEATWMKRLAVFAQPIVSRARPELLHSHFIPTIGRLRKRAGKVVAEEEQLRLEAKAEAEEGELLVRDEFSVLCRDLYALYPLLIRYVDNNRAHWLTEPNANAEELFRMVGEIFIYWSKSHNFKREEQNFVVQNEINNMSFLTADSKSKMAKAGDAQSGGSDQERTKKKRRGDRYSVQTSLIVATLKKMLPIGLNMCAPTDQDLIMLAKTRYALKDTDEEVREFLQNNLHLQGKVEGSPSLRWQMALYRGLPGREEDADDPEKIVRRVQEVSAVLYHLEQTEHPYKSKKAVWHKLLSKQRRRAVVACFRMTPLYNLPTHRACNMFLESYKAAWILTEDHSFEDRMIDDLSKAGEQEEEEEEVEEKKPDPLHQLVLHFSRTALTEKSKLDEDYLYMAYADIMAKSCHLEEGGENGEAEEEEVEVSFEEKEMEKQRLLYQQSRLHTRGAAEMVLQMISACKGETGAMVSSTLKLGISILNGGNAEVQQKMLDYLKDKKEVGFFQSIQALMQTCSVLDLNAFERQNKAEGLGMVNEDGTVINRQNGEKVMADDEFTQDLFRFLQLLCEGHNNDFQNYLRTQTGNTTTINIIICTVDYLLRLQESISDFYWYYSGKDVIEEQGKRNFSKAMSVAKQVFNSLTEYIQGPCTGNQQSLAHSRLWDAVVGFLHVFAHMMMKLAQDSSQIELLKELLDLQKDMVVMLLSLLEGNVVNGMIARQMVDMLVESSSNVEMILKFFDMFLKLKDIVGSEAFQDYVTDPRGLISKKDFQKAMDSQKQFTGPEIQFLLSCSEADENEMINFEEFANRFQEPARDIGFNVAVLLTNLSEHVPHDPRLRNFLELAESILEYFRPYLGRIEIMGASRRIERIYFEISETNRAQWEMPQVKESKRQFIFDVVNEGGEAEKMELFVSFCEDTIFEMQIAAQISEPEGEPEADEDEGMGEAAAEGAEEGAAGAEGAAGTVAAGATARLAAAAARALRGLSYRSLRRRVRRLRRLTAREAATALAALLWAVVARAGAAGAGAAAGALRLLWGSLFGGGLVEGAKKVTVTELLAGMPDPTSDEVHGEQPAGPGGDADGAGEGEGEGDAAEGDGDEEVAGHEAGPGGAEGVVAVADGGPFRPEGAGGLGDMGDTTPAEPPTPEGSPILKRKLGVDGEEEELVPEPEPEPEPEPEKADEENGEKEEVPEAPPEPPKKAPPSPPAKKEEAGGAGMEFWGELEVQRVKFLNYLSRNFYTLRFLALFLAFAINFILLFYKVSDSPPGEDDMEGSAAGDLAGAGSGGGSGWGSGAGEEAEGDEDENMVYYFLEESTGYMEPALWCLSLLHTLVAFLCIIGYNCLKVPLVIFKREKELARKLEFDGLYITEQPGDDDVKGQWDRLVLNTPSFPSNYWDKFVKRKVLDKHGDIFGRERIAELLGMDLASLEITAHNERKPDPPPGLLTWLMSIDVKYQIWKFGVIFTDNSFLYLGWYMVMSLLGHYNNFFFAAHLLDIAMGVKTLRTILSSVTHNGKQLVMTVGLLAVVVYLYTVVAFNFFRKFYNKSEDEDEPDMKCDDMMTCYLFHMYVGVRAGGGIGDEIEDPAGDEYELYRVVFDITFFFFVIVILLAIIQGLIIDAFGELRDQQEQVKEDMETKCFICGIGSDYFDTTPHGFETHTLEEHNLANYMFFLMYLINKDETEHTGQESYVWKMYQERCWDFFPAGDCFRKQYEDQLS

Tribolium castaneum = experiment: Insecticidal activity against Tribolium castaneum first instar larvae; type: functional, organism-based

| Activity [1] | Compound | Activity (Mus musculus) | Activity (Musca domestica) | Activity (Tribolium castaneum) |
| --- | --- | --- | --- | --- |
|  | CC(C)[C@@]1(O)[C@@H](OC(=O)c2ccc[nH]2)[C@@]2(O)[C@@]3(C)C[C@]4(O)O[C@@]5([C@H](O)[C@@H](C)CC[C@]35O)[C@@]2(O)[C@@]14C [RYANODINE] | Active |  |  |
| inactive | CC(C)[C@@]1(O)[C@@H](OC(=O)c2cccnc2)[C@@]2(O)[C@]3(C)C[C@@]4(O)O[C@@]5([C@H](O)[C@@H](C)CC[C@]35O)[C@@]2(O)[C@@]41C | Not Active | inactive | inactive |
|  | CC(C)[C@@]1(O)[C@@H](OC(=O)c2cc[nH]c2)[C@@]2(O)[C@]3(C)C[C@@]4(O)O[C@@]5([C@H](O)[C@@H](C)CC[C@]35O)[C@@]2(O)[C@@]41C |  | Active | Active |

From ChEMBL document CHEMBL1158979, “Ryanodyl 3-(pyridine-3-carboxylate): a novel ryanoid from Ryania insecticide” (J Nat Prod, 1991)
